The values below come from US20230265103A1 (TME Therapeutics LLC, priority 2021, published 2023).

pIC50: −log10 of the molar value.

The target of one test is T1, PIKFYVE (Homo sapiens, UniProt Q9Y2I7).
T1 construct: purchased Eurofins (KINOMEscan); host or cells: E. coli BL21-derived (T7 phage display) or HEK-293
T1 sequence (Q9Y2I7 whole entry): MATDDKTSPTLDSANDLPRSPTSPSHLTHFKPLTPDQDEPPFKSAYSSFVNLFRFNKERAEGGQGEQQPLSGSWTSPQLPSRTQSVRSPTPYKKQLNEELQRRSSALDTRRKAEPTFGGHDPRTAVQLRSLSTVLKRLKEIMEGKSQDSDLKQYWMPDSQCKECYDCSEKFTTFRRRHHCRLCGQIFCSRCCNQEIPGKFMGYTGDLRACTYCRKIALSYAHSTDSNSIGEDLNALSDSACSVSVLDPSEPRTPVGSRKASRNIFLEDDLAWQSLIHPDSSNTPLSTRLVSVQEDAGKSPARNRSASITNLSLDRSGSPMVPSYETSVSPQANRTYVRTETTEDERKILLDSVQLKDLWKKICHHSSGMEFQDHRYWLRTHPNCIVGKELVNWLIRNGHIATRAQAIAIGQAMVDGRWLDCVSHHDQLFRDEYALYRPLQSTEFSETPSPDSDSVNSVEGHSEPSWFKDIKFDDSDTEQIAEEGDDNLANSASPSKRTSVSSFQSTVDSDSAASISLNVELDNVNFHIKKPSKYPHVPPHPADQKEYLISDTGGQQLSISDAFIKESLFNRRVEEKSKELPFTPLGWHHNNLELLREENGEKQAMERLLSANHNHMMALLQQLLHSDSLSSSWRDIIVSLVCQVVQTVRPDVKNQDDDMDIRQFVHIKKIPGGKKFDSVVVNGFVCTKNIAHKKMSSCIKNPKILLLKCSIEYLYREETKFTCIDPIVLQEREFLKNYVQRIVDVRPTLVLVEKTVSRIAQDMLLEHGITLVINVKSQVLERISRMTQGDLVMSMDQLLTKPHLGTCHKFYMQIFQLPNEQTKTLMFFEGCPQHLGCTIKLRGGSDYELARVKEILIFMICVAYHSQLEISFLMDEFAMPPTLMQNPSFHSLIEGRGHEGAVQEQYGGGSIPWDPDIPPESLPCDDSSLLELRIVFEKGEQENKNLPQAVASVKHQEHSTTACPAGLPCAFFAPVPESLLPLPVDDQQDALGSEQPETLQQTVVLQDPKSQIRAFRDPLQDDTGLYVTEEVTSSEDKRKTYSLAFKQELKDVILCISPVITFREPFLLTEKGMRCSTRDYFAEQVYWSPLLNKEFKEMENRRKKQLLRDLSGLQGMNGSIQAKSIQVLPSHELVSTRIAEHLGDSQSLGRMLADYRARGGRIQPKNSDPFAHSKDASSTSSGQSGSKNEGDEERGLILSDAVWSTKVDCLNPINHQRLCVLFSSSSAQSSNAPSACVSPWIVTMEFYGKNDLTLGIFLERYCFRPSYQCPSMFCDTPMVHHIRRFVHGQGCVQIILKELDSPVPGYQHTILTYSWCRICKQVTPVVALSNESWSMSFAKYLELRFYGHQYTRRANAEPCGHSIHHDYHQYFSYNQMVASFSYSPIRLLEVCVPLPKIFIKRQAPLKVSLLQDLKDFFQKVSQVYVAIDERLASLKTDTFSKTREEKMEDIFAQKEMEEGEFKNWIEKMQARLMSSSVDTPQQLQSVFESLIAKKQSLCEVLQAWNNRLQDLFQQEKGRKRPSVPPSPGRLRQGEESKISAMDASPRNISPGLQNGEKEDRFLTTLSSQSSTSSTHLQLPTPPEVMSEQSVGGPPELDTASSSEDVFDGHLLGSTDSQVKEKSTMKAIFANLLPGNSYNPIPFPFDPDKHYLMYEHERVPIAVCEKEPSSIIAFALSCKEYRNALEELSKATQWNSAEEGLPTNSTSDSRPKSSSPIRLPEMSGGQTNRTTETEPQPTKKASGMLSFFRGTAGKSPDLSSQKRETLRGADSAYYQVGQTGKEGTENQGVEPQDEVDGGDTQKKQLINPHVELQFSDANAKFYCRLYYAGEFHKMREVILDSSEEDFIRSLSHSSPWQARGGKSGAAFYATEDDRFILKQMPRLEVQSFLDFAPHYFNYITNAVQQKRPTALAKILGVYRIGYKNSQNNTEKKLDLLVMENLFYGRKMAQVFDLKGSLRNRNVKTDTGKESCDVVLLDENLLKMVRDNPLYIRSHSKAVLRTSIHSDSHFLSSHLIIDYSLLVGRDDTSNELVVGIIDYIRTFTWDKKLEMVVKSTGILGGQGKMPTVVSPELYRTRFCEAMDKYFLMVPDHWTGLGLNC
Briefly: KINOMEscan Kinase Assay (Eurofins), PIKFYVE inhibitory activity. The test is classed as binding. The following applies: @ 3 nM.
As for `Cc1cccc(-c2ccn(-c3nc(N4CCOCC4)c4nc(CN5CCOCC5)n(C)c4n3)n2)c1` [Ex. 56, 4-((9-methyl-6-morpholino-2-(3-(m-tolyl)-1H-pyrazol-1-yl)-9H-purin-8-yl)methyl)morpholine], testing at 0.003 µM gave an inhibition of 94%.

The same test, now with this note: @ 5 nM.
On to `Cc1cc(-c2ccn(-c3cc(N4CCOCC4)c4sc(CN5CCOCC5)cc4n3)n2)ccn1` [Ex. 190, 4-(5-(3-(2-Methylpyridin-4-yl)-1H-pyrazol-1-yl)-2-(morpholinomethyl)thieno[3,2-b]pyridin-7-yl) morpholine], for which the inhibition (commonly the percentage by which the read-out fell short of the control) at 0.005 µM worked out at 5%.

The same test, now with this note: @ 50 nM.
In the case of `Cc1cccc(-c2ccn(-c3nc(N4CCOCC4)c4sc(CN5CCC(N(C)S(C)(=O)=O)CC5)cc4n3)n2)c1` [Ex. 6, N-methyl-N-(1-((4-morpholino-2-(3-(m-tolyl)-1H-pyrazol-1-yl)thieno[3,2-d]pyrimidin-6-yl)methyl)piperidin-4-yl)methanesulfonamide], at 0.05 µM the inhibition was 100%.

The test is the same for the next values; noted with them: @ 1000 nM.
`Cc1cccc(-c2ccn(-c3cc(N4CCOCC4)c4nc(CN5CCC(N6CCOCC6)CC5)[nH]c4n3)n2)c1` [Ex. 42, 4-(1-((7-morpholino-5-(3-(m-tolyl)-1H-pyrazol-1-yl)-3H-imidazo[4,5-b]pyridin-2-yl)methyl)piperidin-4-yl)morpholine]: the inhibition at 1 µM is 98%.

The test is the same for the next values; noted with them: KINOMEscan.
In the case of `Cc1cccc(-c2ccn(-c3nc(N4CCOCC4)c4sc(CN5CC[C@H](N(C)C)C5)cc4n3)n2)c1` [Ex. 19, (S)—N,N-dimethyl-1-((4-morpholino-2-(3-(m-tolyl)-1H-pyrazol-1-yl)thieno[3,2-d]pyrimidin-6-yl)methyl)pyrrolidin-3-amine], the pIC50 (as a rule, the IC50 on a negative log10 scale, so that one unit is a factor of ten) was over 9.00.

Turning to `Cc1cccc(-c2ccn(-c3nc(N4CCOCC4)c4sc(C(=O)N5CCC(C(C)(C)O)CC5)c(C)c4n3)n2)c1` [Ex. 61, (4-(2-hydroxypropan-2-yl)piperidin-1-yl)(7-methyl-4-morpholino-2-(3-(m-tolyl)-1H-pyrazol-1-yl)thieno[3,2-d]pyrimidin-6-yl)methanone], the pIC50 is over 9.00.

Turning to `Cc1cccc(-c2ccn(-c3nc(N4CCOCC4)c4nc(CN5CCN(C)CC5)sc4n3)n2)c1` [Ex. 34, 4-(2-((4-methylpiperazin-1-yl)methyl)-5-(3-(m-tolyl)-1H-pyrazol-1-yl)thiazolo[5,4-d]pyrimidin-7-yl)morpholine], the pIC50 was 8.00 to 9.00.

The compound `Cc1cccc(-c2ccn(-c3nc(N4CCOCC4)c4nc(CN5CCC(N(C)C)CC5)[nH]c4n3)n2)c1` [Ex. 15, N,N-dimethyl-1-((6-morpholino-2-(3-(m-tolyl)-1H-pyrazol-1-yl)-9H-purin-8-yl)methyl)piperidin-4-amine] showed a pIC50 of over 9.00.

Consider `Cc1cccc(-c2ccn(-c3nc(N4CCOCC4)c4sc(C(C)N5CCN(S(C)(=O)=O)CC5)cc4n3)n2)c1` (stereo not shown) [Ex. 26, 4-(6-(1-(4-(methylsulfonyl)piperazin-1-yl)ethyl)-2-(3-(m-tolyl)-1H-pyrazol-1-yl)thieno[3,2-d]pyrimidin-4-yl)morpholine], for which the pIC50 is 8.00 to 9.00.

Compound `Cc1cccc(-c2ccn(-c3cc(N4CCOCC4)c4sc(CN5CCN(S(C)(=O)=O)CC5)cc4n3)n2)c1` [Ex. 68, 4-(2-((4-(methylsulfonyl)piperazin-1-yl)methyl)-5-(3-(m-tolyl)-1H-pyrazol-1-yl)thieno[3,2-b]pyridin-7-yl)morpholine] gave a pIC50 of over 9.00.

`Cc1cccc(-c2ccn(-c3cc(N4CCOCC4)c4nc(CN5CCN(S(C)(=O)=O)CC5)n(C)c4n3)n2)c1` [Ex. 72, 4-(3-methyl-2-((4-(methylsulfonyl)piperazin-1-yl)methyl)-5-(3-(m-tolyl)-1H-pyrazol-1-yl)-3H-imidazo[4,5-b]pyridin-7-yl)morpholine] gave a pIC50 of over 9.00.

The compound `Cc1cccc(-c2ccn(-c3nc(N4CCOCC4)c4sc(CN5CCC(N6CCC6)C(F)C5)cc4n3)n2)c1` (stereo not shown) showed a pIC50 of over 9.00.

The compound `Cc1cccc(-c2ccn(-c3cc(N4CCOCC4)c4nc(CN5CCN(S(C)(=O)=O)CC5)[nH]c4n3)n2)c1` [Ex. 27, 4-(2-((4-(methylsulfonyl)piperazin-1-yl)methyl)-5-(3-(m-tolyl)-1H-pyrazol-1-yl)-3H-imidazo[4,5-b]pyridin-7-yl)morpholine] had a pIC50 of over 9.00.

For `Cc1cccc(-c2ccn(-c3cc(N4CCOCC4)c4nc(CN5CCOCC5)[nH]c4n3)n2)c1` [Ex. 38, 4-((7-morpholino-5-(3-(m-tolyl)-1H-pyrazol-1-yl)-3H-imidazo[4,5-b]pyridin-2-yl)methyl)morpholine], the pIC50 was over 9.00.

The compound `Cc1cccc(-c2ccn(-c3nc(N4CCOCC4)c4nc(CN5CCN(S(C)(=O)=O)CC5)n(C)c4n3)n2)c1` [Ex. 57, 4-(9-methyl-8-((4-(methylsulfonyl)piperazin-1-yl)methyl)-2-(3-(m-tolyl)-1H-pyrazol-1-yl)-9H-purin-6-yl)morpholine] had a negative logarithm of the IC50 (pIC50) of 8.00 to 9.00.

On to `Cc1cccc(-c2ccn(-c3nc(N4CCOCC4)c4sc(CN5CC(N(C)C)C5)cc4n3)n2)c1` [Ex. 32, N,N-dimethyl-1-((4-morpholino-2-(3-(m-tolyl)-1H-pyrazol-1-yl)thieno[3,2-d]pyrimidin-6-yl)methyl)azetidin-3-amine], for which the pIC50 was over 9.00.

`COC(C)(C)c1sc2c(N3CCOCC3)nc(-n3ccc(-c4cccc(C)c4)n3)nc2c1C` [Ex. 64, 4-(6-(2-methoxypropan-2-yl)-7-methyl-2-(3-(m-tolyl)-1H-pyrazol-1-yl)thieno[3,2-d]pyrimidin-4-yl)morpholine] gave a pIC50 of 8.00 to 9.00.

`Cc1cccc(-c2ccn(-c3nc(N4CCOCC4)c4sc(C(=O)N5CC[C@H](N(C)C)C5)cc4n3)n2)c1` [Ex. 24, (S)-(3-(dimethylamino)pyrrolidin-1-yl)(4-morpholino-2-(3-(m-tolyl)-1H-pyrazol-1-yl)thieno[3,2-d]pyrimidin-6-yl)methanone]: the pIC50 is over 9.00.

As to `Cc1cccc(-c2ccn(-c3nc(N4CCOCC4)c4sc(CN5CCC(N(C)C)C(F)C5)c(C)c4n3)n2)c1` (stereo not shown) [Ex. 55, 3-fluoro-N,N-dimethyl-1-((7-methyl-4-morpholino-2-(3-(m-tolyl)-1H-pyrazol-1-yl)thieno[3,2-d]pyrimidin-6-yl)methyl)piperidin-4-amine], the pIC50 is over 9.00.

As for `Cc1cccc(-c2ccn(-c3nc(N4CCOCC4)c4sc(CN5CC6C(C5)C6N(C)C)cc4n3)n2)c1` (stereo not shown) [Ex. 20, N,N-dimethyl-3-((4-morpholino-2-(3-(m-tolyl)-1H-pyrazol-1-yl)thieno[3,2-d]pyrimidin-6-yl)methyl)-3-azabicyclo[3.1.0]hexan-6-amine], the pIC50 was over 9.00.

Turning to `Cc1cccc(-c2ccn(-c3nc(N4CCOCC4)c4nc(CN5CCN(S(C)(=O)=O)CC5)[nH]c4n3)n2)c1` [Ex. 10, 4-(8-((4-(methylsulfonyl)piperazin-1-yl)methyl)-2-(3-(m-tolyl)-1H-pyrazol-1-yl)-9H-purin-6-yl)morpholine], the pIC50 is over 9.00.

Regarding `Cc1cccc(-c2ccn(-c3nc(N4CCOCC4)c4nc(CN5CCC(N(C)S(C)(=O)=O)CC5)[nH]c4n3)n2)c1` [Ex. 11, N-methyl-N-(1-((6-morpholino-2-(3-(m-tolyl)-1H-pyrazol-1-yl)-9H-purin-8-yl)methyl)piperidin-4-yl)methanesulfonamide], the pIC50 is 8.00 to 9.00.

In turn, `Cc1cccc(-c2ccn(-c3nc(N4CCOCC4)c4sc(CN5CCN(S(C)(=O)=O)CC5)c(C)c4n3)n2)c1` [Ex. 54, 4-(7-methyl-6-((4-(methylsulfonyl)piperazin-1-yl)methyl)-2-(3-(m-tolyl)-1H-pyrazol-1-yl)thieno[3,2-d]pyrimidin-4-yl)morpholine] had a pIC50 of over 9.00.

The compound `Cc1cccc(-c2ccn(-c3nc(N4CCOCC4)c4sc(C(=O)N5CCN(C)CC5)cc4n3)n2)c1` [Ex. 25, (4-methylpiperazin-1-yl)(4-morpholino-2-(3-(m-tolyl)-1H-pyrazol-1-yl)thieno[3,2-d]pyrimidin-6-yl)methanone] showed a pIC50 of over 9.00.

With `Cc1cccc(-c2ccn(-c3nc(N4CCOCC4)c4nc(-c5cnn(C)c5)sc4n3)n2)c1` [Ex. 49, 4-(2-(1-methyl-1H-pyrazol-4-yl)-5-(3-(m-tolyl)-1H-pyrazol-1-yl)thiazolo[5,4-d]pyrimidin-7-yl)morpholine], the pIC50 was over 9.00.

The compound `Cc1cccc(-c2ccn(-c3nc(N4CCOCC4)c4nc(CN5CC(N6CCCC6)C5)[nH]c4n3)n2)c1` [Ex. 36, 4-(8-((3-(pyrrolidin-1-yl)azetidin-1-yl)methyl)-2-(3-(m-tolyl)-1H-pyrazol-1-yl)-9H-purin-6-yl)morpholine] gave a pIC50 of over 9.00.

`Cc1cccc(-c2ccn(-c3nc(N4CCOCC4)c4nc(C(C)N5CCN(S(C)(=O)=O)CC5)sc4n3)n2)c1` (stereo not shown) [Ex. 12, 4-(2-(1-(4-(methylsulfonyl)piperazin-1-yl)ethyl)-5-(3-(m-tolyl)-1H-pyrazol-1-yl)thiazolo[5,4-d]pyrimidin-7-yl)morpholine] showed a pIC50 of 8.00 to 9.00.

The compound `Cc1cccc(-c2ccn(-c3nc(N4CCOCC4)c4sc(C(=O)N5CCC(C(C)(C)O)CC5)cc4n3)n2)c1` [Ex. 22, (4-(2-hydroxypropan-2-yl)piperidin-1-yl)(4-morpholino-2-(3-(m-tolyl)-1H-pyrazol-1-yl)thieno[3,2-d]pyrimidin-6-yl)methanone] showed a negative logarithm of the IC50 (pIC50) of over 9.00.

Turning to `Cc1cccc(-c2ccn(-c3cc(N4CCOCC4)c4nc(CN5CCC(N(C)C)C(F)C5)[nH]c4n3)n2)c1` (stereo not shown) [Ex. 52, 3-fluoro-N,N-dimethyl-1-((7-morpholino-5-(3-(m-tolyl)-1H-pyrazol-1-yl)-3H-imidazo[4,5-b]pyridin-2-yl)methyl)piperidin-4-amine], the pIC50 was over 9.00.

Compound `Cc1cccc(-c2ccn(-c3cc(N4CCOCC4)c4nc(CN5CC(N(C)C)C5)[nH]c4n3)n2)c1` [Ex. 48, N,N-dimethyl-1-((7-morpholino-5-(3-(m-tolyl)-1H-pyrazol-1-yl)-3H-imidazo[4,5-b]pyridin-2-yl)methyl)azetidin-3-amine] had a pIC50 of 8.00 to 9.00.

As to `Cc1cccc(-c2ccn(-c3nc(N4CCOCC4)c4nc(CN5CCC(N6CCC6)C(F)C5)sc4n3)n2)c1` (stereo not shown) [Ex. 47, 4-(2-((4-(azetidin-1-yl)-3-fluoropiperidin-1-yl)methyl)-5-(3-(m-tolyl)-1H-pyrazol-1-yl)thiazolo[5,4-d]pyrimidin-7-yl)morpholine], the pIC50 was over 9.00.
